US11117892B2, “Pyrrolo-pyridine derivative compound, method for preparing same, and pharmaceutical composition containing same as active ingredient for prevention or treatment of protein kinase-related diseases” (DAEGU-GYEONGBUK MEDICAL INNOVATION FOUNDATION, priority 2017, dated 2021)

Assays:
Experiment in all cases: scanMAX Kinase assay panel
Assay type in all cases: binding
Conditions in all cases: read-out: % control
JNK3 = JNK3 (Homo sapiens (Human), UniProt P53779)
Method: (§1) DiscoverX Co. was asked to measure the enzyme (kinase) selectivity, and the experiment was performed using scanMAX™ Kinase assay panel.
(§2) (Example Compound−Positive Control)/(Negative Control−Positive Control)×100 [Equation 1]
(§3) Herein, the positive control indicates the compound showing the % control of 0%, and the negative control indicates DMSO showing the % control of 100%.

MKK7 = MKK7 (Homo sapiens (Human), UniProt O14733)
Method: as §1, §2, §3

NDR2 = NDR2 (Homo sapiens (Human), UniProt Q9Y2H1)
Method: as §1, §2, §3

CAMK2G = CAMK2G (Homo sapiens (Human), UniProt Q13555)
Method: as §1, §2, §3

CAMK2A = CAMK2A (Homo sapiens (Human), UniProt Q9UQM7)
Method: as §1, §2, §3

SRPK3 = SRPK3 (Homo sapiens (Human), UniProt Q9UPE1)
Method: as §1, §2, §3

S6K1 = S6K1 (Homo sapiens (Human), UniProt P23443)
Method: as §1, §2, §3

SGK2 = SGK2 (Homo sapiens (Human), UniProt Q9HBY8)
Method: as §1, §2, §3

[1] = biological target: EGFR(L747-E749del, A750P) (Homo sapiens (Human), UniProt P00533, A750P/DEL747-749)
Method: as §1, §2, §3

DAPK1 = DAPK1 (Homo sapiens (Human), UniProt P53355)
Method: as §1, §2, §3

KIT(D816H) = KIT(D816H) (Homo sapiens (Human), UniProt P10721, D816H)
Method: as §1, §2, §3

BMPR1A = BMPR1A (Homo sapiens (Human), UniProt P36894)
Method: as §1, §2, §3

EGFR(L747-T751del, Sins) = EGFR(L747-T751del, Sins) (Homo sapiens (Human), UniProt P00533, DEL747-751/INS746S)
Method: as §1, §2, §3

ROS1 = ROS1 (Homo sapiens (Human), UniProt P08922)
Method: as §1, §2, §3

IRAK3 = IRAK3 (Homo sapiens (Human), UniProt Q9Y616)
Method: as §1, §2, §3

AURKA = AURKA (Homo sapiens (Human), UniProt O14965)
Method: as §1, §2, §3

PIKFYVE = PIKFYVE (Homo sapiens (Human), UniProt Q9Y2I7)
Method: as §1, §2, §3

PIK3CA(H1047L) = PIK3CA(H1047L) (Homo sapiens (Human), UniProt P42336, H1047L)
Method: as §1, §2, §3

DMPK = DMPK (Homo sapiens (Human), UniProt Q09013)
Method: as §1, §2, §3

PRKCE = PRKCE (Homo sapiens (Human), UniProt Q02156)
Method: as §1, §2, §3

PRKD3 = PRKD3 (Homo sapiens (Human), UniProt O94806)
Method: as §1, §2, §3

TNK1 = TNK1 (Homo sapiens (Human), UniProt Q13470)
Method: as §1, §2, §3

ERK2 = ERK2 (Homo sapiens (Human), UniProt P28482)
Method: as §1, §2, §3

PIK3CD = PIK3CD (Homo sapiens (Human), UniProt O00329)
Method: as §1, §2, §3

CAMK2B = CAMK2B (Homo sapiens (Human), UniProt Q13554)
Method: as §1, §2, §3

TIE1 = TIE1 (Homo sapiens (Human), UniProt P35590)
Method: as §1, §2, §3

GAK = GAK (Homo sapiens (Human), UniProt O14976)
Method: as §1, §2, §3

GRK4 = GRK4 (Homo sapiens (Human), UniProt P32298)
Method: as §1, §2, §3

FLT3(D835H) = FLT3(D835H) (Homo sapiens (Human), UniProt P36888, D835H)
Method: as §1, §2, §3

PFCDPK1(P. falciparum) = PFCDPK1(P. falciparum) (Plasmodium falciparum (isolate 3D7), UniProt P62344)
Method: (§4) Particularly, the compounds of Examples 18 and 57 were selected among all of those compounds of the present invention. DiscoverX Co. was asked to measure the enzyme (kinase) selectivity, and the experiment was performed using scanMAX™ Kinase assay panel.
(§5) At this time, the concentration of the drug treated to each enzyme was 1 uM in DMSO and the control percentage (% control) was determined by the following Equation 1. (Example Compound−Positive Control)/(Negative Control−Positive Control)×100 [Equation 1]
(§6) Herein, the positive control indicates the compound showing the % control of 0%, and the negative control indicates DMSO showing the % control of 100%. The enzyme selectivity in the present invention is defined as follows: When the % control for each enzyme is less than 35% (<35%), it is judged that the compound has the activity to the corresponding enzyme.

PRP4 = PRP4 (Homo sapiens (Human), UniProt Q13523)
Method: as §4, §5, §6

CDC2L5 = CDC2L5 (Homo sapiens (Human), UniProt Q14004)
Method: as §4, §5, §6

PKNB(M. tuberculosis) = PKNB(M. tuberculosis) (Mycobacterium tuberculosis (strain ATCC 25618 / H37Rv), UniProt P9WI81)
Method: as §4, §5, §6

PFPK5(P. falciparum) = PFPK5(P. falciparum) (Plasmodium falciparum (isolate 3D7), UniProt P61075)
Method: as §4, §5, §6

AURKA, sequence (O14965 whole entry): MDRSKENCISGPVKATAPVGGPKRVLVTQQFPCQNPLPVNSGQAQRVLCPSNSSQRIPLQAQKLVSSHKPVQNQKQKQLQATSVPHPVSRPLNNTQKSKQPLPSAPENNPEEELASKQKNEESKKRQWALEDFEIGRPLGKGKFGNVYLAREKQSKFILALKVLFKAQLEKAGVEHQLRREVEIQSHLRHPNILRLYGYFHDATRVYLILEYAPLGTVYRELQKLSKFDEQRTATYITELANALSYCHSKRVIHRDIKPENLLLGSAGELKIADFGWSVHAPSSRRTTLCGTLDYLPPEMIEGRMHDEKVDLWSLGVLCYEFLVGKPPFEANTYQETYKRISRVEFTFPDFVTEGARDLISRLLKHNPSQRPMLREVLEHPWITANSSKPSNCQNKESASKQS
CAMK2A, sequence (Q9UQM7 whole entry): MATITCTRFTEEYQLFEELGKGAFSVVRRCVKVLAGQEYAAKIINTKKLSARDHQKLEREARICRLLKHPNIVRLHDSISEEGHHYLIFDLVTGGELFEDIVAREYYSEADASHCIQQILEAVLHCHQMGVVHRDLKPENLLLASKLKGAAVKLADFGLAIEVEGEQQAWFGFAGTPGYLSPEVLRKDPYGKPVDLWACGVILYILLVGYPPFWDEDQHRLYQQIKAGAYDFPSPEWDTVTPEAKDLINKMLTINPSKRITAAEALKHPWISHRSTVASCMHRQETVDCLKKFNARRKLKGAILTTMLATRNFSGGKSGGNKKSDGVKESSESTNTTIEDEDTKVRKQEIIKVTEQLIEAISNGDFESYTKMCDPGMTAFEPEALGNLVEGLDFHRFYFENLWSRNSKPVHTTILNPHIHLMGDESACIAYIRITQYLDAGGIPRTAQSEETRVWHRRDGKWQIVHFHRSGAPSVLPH
NDR2, sequence (Q9Y2H1 whole entry): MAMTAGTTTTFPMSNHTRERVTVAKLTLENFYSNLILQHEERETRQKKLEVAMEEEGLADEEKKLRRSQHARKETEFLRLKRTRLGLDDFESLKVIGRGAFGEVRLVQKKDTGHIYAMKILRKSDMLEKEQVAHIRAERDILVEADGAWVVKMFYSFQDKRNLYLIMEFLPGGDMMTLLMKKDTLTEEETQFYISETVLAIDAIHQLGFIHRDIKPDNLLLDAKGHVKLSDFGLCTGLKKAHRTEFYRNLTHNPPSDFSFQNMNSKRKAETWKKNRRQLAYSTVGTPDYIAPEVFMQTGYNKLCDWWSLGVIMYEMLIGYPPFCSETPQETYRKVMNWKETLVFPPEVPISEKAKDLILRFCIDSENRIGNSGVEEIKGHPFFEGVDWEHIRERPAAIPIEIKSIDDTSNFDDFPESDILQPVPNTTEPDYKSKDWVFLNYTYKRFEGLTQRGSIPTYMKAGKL
KIT(D816H), sequence (P10721 26-976 D816H): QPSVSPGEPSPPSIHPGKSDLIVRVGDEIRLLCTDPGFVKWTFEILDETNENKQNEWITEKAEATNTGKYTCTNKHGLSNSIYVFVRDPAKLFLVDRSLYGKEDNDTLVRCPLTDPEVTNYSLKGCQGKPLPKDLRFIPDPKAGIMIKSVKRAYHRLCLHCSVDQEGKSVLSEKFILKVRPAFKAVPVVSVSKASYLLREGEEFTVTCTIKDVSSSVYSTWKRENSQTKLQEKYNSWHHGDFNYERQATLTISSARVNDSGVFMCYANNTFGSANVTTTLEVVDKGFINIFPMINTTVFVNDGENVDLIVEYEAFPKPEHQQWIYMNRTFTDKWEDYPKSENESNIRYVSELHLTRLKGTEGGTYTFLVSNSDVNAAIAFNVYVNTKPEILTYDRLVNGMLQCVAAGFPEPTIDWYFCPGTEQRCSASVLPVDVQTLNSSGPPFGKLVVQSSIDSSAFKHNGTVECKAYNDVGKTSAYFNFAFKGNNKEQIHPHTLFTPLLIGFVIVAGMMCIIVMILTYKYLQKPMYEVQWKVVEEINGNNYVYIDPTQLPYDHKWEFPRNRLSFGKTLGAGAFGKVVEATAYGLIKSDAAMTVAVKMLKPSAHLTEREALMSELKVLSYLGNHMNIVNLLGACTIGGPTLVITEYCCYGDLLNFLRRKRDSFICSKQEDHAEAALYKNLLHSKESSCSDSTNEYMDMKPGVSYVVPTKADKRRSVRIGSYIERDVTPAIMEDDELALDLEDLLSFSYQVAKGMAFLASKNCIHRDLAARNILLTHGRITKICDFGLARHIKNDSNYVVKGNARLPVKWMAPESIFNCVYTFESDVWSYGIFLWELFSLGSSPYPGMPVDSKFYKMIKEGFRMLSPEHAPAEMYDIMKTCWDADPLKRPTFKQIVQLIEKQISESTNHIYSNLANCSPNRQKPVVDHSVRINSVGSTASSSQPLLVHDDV
BMPR1A, sequence (P36894 24-532): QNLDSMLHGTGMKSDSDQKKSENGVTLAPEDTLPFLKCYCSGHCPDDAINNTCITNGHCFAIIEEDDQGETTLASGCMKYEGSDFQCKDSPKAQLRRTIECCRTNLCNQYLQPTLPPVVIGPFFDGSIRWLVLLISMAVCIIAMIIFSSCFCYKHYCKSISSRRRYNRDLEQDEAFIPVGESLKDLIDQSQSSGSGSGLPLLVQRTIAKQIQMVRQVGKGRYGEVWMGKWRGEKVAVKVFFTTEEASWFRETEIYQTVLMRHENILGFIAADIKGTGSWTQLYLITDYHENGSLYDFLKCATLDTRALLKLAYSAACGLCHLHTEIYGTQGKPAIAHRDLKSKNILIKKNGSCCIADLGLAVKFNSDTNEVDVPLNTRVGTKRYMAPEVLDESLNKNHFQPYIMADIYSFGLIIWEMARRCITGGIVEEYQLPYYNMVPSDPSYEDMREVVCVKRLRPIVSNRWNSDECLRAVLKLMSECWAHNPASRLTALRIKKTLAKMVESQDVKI
PRKD3, sequence (O94806 whole entry): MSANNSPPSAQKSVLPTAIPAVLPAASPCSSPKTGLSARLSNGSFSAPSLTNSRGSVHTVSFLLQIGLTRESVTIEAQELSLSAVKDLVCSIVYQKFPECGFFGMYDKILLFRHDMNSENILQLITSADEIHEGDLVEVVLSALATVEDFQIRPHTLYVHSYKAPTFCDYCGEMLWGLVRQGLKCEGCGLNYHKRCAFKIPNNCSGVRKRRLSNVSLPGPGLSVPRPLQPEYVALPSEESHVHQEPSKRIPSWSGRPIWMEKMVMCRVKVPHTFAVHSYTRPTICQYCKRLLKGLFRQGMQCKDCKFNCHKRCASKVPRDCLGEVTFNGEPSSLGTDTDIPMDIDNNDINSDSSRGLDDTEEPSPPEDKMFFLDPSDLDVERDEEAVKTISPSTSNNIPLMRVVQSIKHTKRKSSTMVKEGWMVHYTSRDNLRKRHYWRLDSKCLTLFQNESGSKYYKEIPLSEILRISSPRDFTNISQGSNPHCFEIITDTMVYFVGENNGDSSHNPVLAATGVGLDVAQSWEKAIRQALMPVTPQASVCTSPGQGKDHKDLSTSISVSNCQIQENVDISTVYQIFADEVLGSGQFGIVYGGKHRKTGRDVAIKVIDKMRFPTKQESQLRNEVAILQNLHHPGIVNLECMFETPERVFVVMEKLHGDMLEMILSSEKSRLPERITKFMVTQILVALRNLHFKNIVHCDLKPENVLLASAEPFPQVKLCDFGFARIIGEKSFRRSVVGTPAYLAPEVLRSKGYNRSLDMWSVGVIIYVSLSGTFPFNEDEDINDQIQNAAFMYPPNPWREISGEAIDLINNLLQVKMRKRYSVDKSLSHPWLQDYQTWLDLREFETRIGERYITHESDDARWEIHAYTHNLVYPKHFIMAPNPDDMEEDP
IRAK3, sequence (Q9Y616 whole entry): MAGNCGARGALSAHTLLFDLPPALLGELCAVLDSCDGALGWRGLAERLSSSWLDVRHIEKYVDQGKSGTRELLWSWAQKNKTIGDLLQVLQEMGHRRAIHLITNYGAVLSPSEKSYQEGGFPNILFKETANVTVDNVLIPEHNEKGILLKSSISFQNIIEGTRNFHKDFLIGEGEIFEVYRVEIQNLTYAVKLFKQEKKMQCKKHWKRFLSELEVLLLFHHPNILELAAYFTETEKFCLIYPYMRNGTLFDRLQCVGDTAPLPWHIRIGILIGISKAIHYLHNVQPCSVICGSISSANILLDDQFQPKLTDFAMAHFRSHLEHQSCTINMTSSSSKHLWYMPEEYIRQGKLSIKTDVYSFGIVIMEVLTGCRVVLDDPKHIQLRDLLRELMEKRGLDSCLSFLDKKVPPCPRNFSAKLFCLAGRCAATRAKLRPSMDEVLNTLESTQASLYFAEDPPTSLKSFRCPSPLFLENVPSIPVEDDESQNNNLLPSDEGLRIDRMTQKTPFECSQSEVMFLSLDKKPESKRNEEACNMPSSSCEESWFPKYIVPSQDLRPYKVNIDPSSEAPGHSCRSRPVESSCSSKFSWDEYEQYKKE
GRK4, sequence (P32298 whole entry): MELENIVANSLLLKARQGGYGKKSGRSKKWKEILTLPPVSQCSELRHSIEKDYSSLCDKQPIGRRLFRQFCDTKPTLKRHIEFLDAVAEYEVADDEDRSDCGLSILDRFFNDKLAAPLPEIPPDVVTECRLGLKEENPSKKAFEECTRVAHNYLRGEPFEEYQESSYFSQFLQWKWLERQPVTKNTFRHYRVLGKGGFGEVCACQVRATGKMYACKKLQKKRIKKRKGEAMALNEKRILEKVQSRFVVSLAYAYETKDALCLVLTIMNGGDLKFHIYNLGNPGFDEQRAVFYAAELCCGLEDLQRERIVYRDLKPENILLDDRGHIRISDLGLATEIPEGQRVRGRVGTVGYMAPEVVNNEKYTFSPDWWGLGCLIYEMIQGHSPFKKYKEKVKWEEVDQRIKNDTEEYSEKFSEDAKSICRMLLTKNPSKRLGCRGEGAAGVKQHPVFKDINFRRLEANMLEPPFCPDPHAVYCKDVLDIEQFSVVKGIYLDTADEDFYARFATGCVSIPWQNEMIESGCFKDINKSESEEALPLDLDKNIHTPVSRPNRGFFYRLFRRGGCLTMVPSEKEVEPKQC

Row | Structure (SMILES) | remaining binding at 1 µM (JNK3) [%] | remaining binding at 1 µM (MKK7) [%] | remaining binding at 1 µM (NDR2) [%] | remaining binding at 1 µM (CAMK2G) [%] | remaining binding at 1 µM (CAMK2A) [%] | remaining binding at 1 µM (SRPK3) [%] | remaining binding at 1 µM (S6K1) [%] | remaining binding at 1 µM (SGK2) [%] | remaining binding at 1 µM [1] [%] | remaining binding at 1 µM (DAPK1) [%] | remaining binding at 1 µM (KIT(D816H)) [%] | remaining binding at 1 µM (BMPR1A) [%] | remaining binding at 1 µM (EGFR(L747-T751del, Sins)) [%] | remaining binding at 1 µM (ROS1) [%] | remaining binding at 1 µM (IRAK3) [%] | remaining binding at 1 µM (AURKA) [%] | remaining binding at 1 µM (PIKFYVE) [%] | remaining binding at 1 µM (PIK3CA(H1047L)) [%] | remaining binding at 1 µM (DMPK) [%] | remaining binding at 1 µM (PRKCE) [%] | other results
1 | CCNc1cc(Nc2ccc(C(=O)N3CCC(N4CCOCC4)CC3)cc2OC)nc2[nH]cc(C#N)c12 [Example 18, 4-(ethylamino)-6-((2-methoxy-4-(4-morpholinopiperidine-1-carbonyl)phenyl)amino)-1H-pyrrolo[2,3-b]pyridine-3-carbonitrile] | 0 | 89 | 95 | 77 | 72 | 96 | 70 | 64 | 100 | 16 | 80 | 74 | 100 | 83 | 84 | 94 | 99 | 85 | 81 | 77 | remaining binding at 1 µM (PRKD3): 9.6%; remaining binding at 1 µM (TNK1): 81%; remaining binding at 1 µM (ERK2): 94%; remaining binding at 1 µM (PIK3CD): 100%; remaining binding at 1 µM (CAMK2B): 73%; remaining binding at 1 µM (TIE1): 88%; remaining binding at 1 µM (GAK): 15%; remaining binding at 1 µM (GRK4): 100%; remaining binding at 1 µM (FLT3(D835H)): 89%; remaining binding at 1 µM (PFCDPK1(P. falciparum)): 72%; remaining binding at 1 µM (PRP4): 100%; remaining binding at 1 µM (CDC2L5): 100%; remaining binding at 1 µM (PKNB(M. tuberculosis)): 82%; remaining binding at 1 µM (PFPK5(P. falciparum)): 98%
2 | CCNc1cc(Nc2ccc(C(=O)N3CCC(N4CCOCC4)CC3)cc2OC)nc2[nH]cc(C(F)(F)F)c12 [Example 57, (4-((4-(ethylamino)-3-(trifluoromethyl)-1H-pyrrolo[2,3-b]pyridin-6-yl)amino)-3-methoxyphenyl) (4-morpholinopiperidin-1-yl)methanone] | 52 | 93 | 80 | 72 | 72 | 100 | 100 | 100 | 94 | 70 | 96 | 80 | 97 | 69 | 79 | 83 | 77 | 100 | 100 | 64 | remaining binding at 1 µM (PRKD3): 78%; remaining binding at 1 µM (TNK1): 100%; remaining binding at 1 µM (ERK2): 74%; remaining binding at 1 µM (PIK3CD): 100%; remaining binding at 1 µM (CAMK2B): 80%; remaining binding at 1 µM (TIE1): 100%; remaining binding at 1 µM (GAK): 41%; remaining binding at 1 µM (GRK4): 100%; remaining binding at 1 µM (FLT3(D835H)): 100%; remaining binding at 1 µM (PFCDPK1(P. falciparum)): 98%; remaining binding at 1 µM (PRP4): 91%; remaining binding at 1 µM (CDC2L5): 92%; remaining binding at 1 µM (PKNB(M. tuberculosis)): 100%; remaining binding at 1 µM (PFPK5(P. falciparum)): 98%
